The record followed here is patent EP4681700A1, “GSE24.2-DERIVED PEPTIDE AND USES THEREOF” (Consejo Superior De Investigaciones Científicas - CSIC, priority 2023, dated 2026).

Assay [1] has as its system RLE6TN cells. Put plainly: TERT and TERC mRNA expression by quantitative PCR in transduced cells. In kind it is cell-based, rat. To be noted: corrected by GAPDH, normalised to CT; for expression of Tert mRNA: Figure 3A; for expression of Terc: p<0.05, Figure 3B. The source says:
(§1) RNA was isolated from control cells or cells transduced with vectors expressing GFP or the GSE4 and P3 peptides. The corresponding cDNAs, which were used to determine the expression levels of the mRNA encoding TERT (Figure 3, panels A and C) and TERC (Figure 3, panels B and D) by means of quantitative PCR, were synthesised from these RNAs. Expression levels were corrected by levels corresponding to the mRNA encoding GAPDH, used as a control. Relative values were normalised with respect to values obtained for non-transduced control cells (CT). Panels A and B show the results obtained for RL6TN cells and panels C and D show the results corresponding to HaCaT cells.
For assays performed in RLE6TN cells, shown in Figures 3A and 3B, oligonucleotides corresponding to SEQ ID Nos: 23, 24 for TERT, SEQ ID Nos:27, 28 for TERC, and SEQ ID Nos:43, 44 for GAPDH were used in quantitative PCR assays.

Assay [2] relates to RLE6TN cells. Put plainly: TGFβ-induced expression of TGFβ receptor and MCP1 mRNA (epithelial/mesenchymal transition), quantitative PCR. The format is cell-based, rat. The conditions noted are these: 5 ng/mL TGFβ, 48 of culture; for induction of expression of Mcp1 mRNA after incubating the cells with TGFβ: p<0.01 for P3 and GSE4, Figure 4A; for induction of expression of Tgfbr1 mRNA after incubating the cells with TGFβ: p<0.05 for P3, Figure 4A. The text has this: (§2) The ageing of some tissues is accompanied by fibrotic processes in which fibroblasts and myofibroblasts accumulate and in which epithelial/mesenchymal transition of epithelial cells is induced. This process occurs, for example, in idiopathic pulmonary fibrosis and in fibrosis processes as a result of skin exposure to ionising radiation. Many of these processes are mediated by the secretion of the cytokine TGFβ (transforming growth factorβ). The possible effect of the peptides on these processes was studied by incubating cells with TGFβ (R&D Systems, Bio-Techne, Minneapolis; MN, USA) and studying the expression of two mRNAs induced by this cytokine, i.e., the TGFβ receptor (TGFβR1/2) and the cytokine MCP1 (also referred to as CCL2) by means of reverse transcription of RNA and quantitative PCR.
(§3) Control cells or cells transduced with GFP expression vectors, or the GSE4 and P3 peptides were cultured in the absence or presence of a concentration of 5 ng/mL of the TGFβ factor (identified with the symbol + in Figure 4) to induce epithelial/mesenchymal transition. After 48 of culture, RNA was obtained from the cells and converted into cDNA by means of reverse transcription. The expression levels of the mRNA encoding TGFBR-1/2 (TGFβ-receptor 1 or 2) and MCP1 (monocyte chemoattractant protein-1, also referred to as CCL2: C-C motif chemokine ligand 2) were determined by quantitative PCR. The values obtained were corrected by those corresponding to the control mRNA (GAPDH) and normalised by the expression in control cells (CT).
(§4) In the assays shown in Figures 4A, for RLE6TN cells, oligonucleotides SEQ ID Nos 31 and 32 for TGFBR1, 35 and 36 for MCP1, and 43 and 44 for GAPDH were used in quantitative PCR. To obtain the results shown in Figure 4B, for HaCaT cells, oligonucleotides SEQ ID Nos: 29 and 30 for TGFBR2, SEQ ID Nos: 33 and 34 for MCP1, and SEQ ID Nos: 41y 42 for GAPDH b were used.

The subject of assay [3] is HaCaT cells. The assay is described as above. In kind it is cell-based, human. To be noted: 5 ng/mL TGFβ, 48 of culture; for induction of expression of TGFBR2 mRNA after incubating the cells with TGFβ: Figure 4B; for induction of expression of MCP1 mRNA after incubating the cells with TGFβ: p<0.05 for P3, Figure 4B.
Text: as §2, §3, §4

Assay [4] relates to HaCaT cells. Put plainly: TERT and TERC mRNA expression by quantitative PCR in transduced cells. The format is cell-based, human. The conditions noted are these: corrected by GAPDH, normalised to CT; for expression of Terc: p<0.001 for P3 only, Figure 3D; for expression of TERT: p<0.01 for both peptides, Figure 3C.
Text: as §1
The results obtained for HaCaT cells are depicted in Figures 3C and 3D where oligonucleotides corresponding to SEQ ID Nos: 21, 22 for TERT, SEQ ID Nos: 25, 26 for TERC, and SEQ ID Nos: 41, 42 for GAPDH were used. […] This difference is statistically significant for both peptides in the case of TERT (**, p<0.01, ANOVA test and Dunnett's post-hoc test) and for the P3 peptide in the case of TERC (***, p<0.001, ANOVA test and Dunnett's post-hoc test).

The test system of assay [5] is HaCaT cells. Put plainly: yH2AX Western blot (DNA damage signalling) in transduced keratinocytes. The format is cell-based, human. The conditions noted are these: 6 hours. The source says:
(§5) RL6TN cells were transduced with lentiviral vectors directing the expression of the different peptides under study (sequences derived from pCCL-hPGK.GSE4.wPREchim, SEQ ID NO. 62, in which the oligonucleotides corresponding to each peptide, shown in Table 4, SEQ ID Nos: 46-60, have been included between restriction sites Sall and Xbal) or of the GFP protein (green fluorescent protein) (PGK-EGFP sequence, SEQ ID NO. 63) as negative control. 600,000 non-transduced (control, CT) cells or cells transduced with the different lentiviral vectors were cultured for 6 hours in the absence (Panel A) or presence of 4 µg/mL of bleomycin (Merck, Burlington, MA. USA) (Panel B). After this culture period, the cells were lysed and the amount of yH2AX was determined by means of Western blot using an yH2AX-specific antibody (Cell Signalling Technology, Danvers, MA, USA). Expression of the β-actin protein as loading control was simultaneously determined using a specific antibody (Santa Cruz Biotechnology, Dallas, TX, USA). Protein expression was quantified using a luminometer. The expression of yH2AX in each sample was calculated based on the amount of β-actin. These relative values were normalised to the value corresponding to control cells not treated with bleomycin.
DNA damage signalling studies were reproduced in human skill keratinocyte cell line HaCaT. This cell line is often used to study skin's response to environmental and pathogenic agents. HaCaT cells were transduced with lentiviral vectors which allow the expression of the P3 peptide, the GSE4 peptide, as a positive control, or GFP as a negative control. 100,000 non-transduced (CT) cells or cells transduced with the various peptides were cultured in the absence (Figure 2A) or presence of 50 µg/mL of bleomycin (Figure 2B) for 6 hours. Subsequently, the cells were lysed and the amount of yH2AX present in the extracts was determined by Western Blot in the same way as indicated for the assays in RL6TN cells described above.

The subject of assay [6] is rat lung epithelial cells RL6TN. Put plainly: yH2AX Western blot (DNA damage) in cells transduced with lentiviral peptide expression vectors. The format is cell-based. The conditions noted are these: 6 hours, relative to β-actin, normalised to CT. As for the experimental part:
In the experiment shown in Figure 1, rat lung epithelial cells RL6TN were transduced with lentiviral vectors directing the expression of the peptides under study and the corresponding controls. The presence of γH2AX was then determined by means of Western blot assays.
as §5
A general note: In western blotting, separated proteins are transferred to a membrane and probed.

The test system of assay [7] is HaCaT cells. Put plainly: IL-6 mRNA expression by quantitative PCR in transduced cells. In kind it is cell-based, human. The conditions noted are these: Figure 5B. As for the experimental part:
(§6) Another important component of tissue ageing is the production of pro-inflammatory interleukins that induce the presence of basal inflammation in tissues. This inflammatory situation also occurs in some diseases of premature ageing and in response to environmental aggressions. Interleukin-6 (IL-6) is one of the main pro-inflammatory molecules and, for this reason, the possible effect of the expression of the peptides on the synthesis of this molecule was determined. In these experiments, the expression of the mRNA encoding IL-6 in cells transduced with the expression vectors of the P3 peptide and controls was determined.
(§7) RNA was obtained from RL6TN cells (Figure 5, panel A) or HaCaT cells (Figure 5, panel B) not transduced (CT) or transduced with lentiviral vectors expressing GFP or the GSE4 or P3 peptides. cDNA was synthesised from each RNA by reverse transcription and the amount of mRNA encoding IL-6 was quantified by quantitative PCR as described in Examples 2 and 3 above.
(§8) The obtained results are shown in Figures 5A (RLE6TN cells) and 5B (HaCaT cells). In the assays with RLE6TN cells, oligonucleotides with SEQ ID Nos: 39 and 40 for IL-6 and SEQ ID Nos: 43 and 44 for GAPDH were used for quantitative PCRs. In the assay performed with HaCaT cells, oligonucleotides with SEQ ID Nos: 37 and 38 for IL-6 and SEQ ID Nos: 41 and 42 for GAPDH were used.

Assay [8] concerns RLE6TN cells. The assay is described as above. The format is cell-based, rat. The conditions noted are these: Figure 5A. Here is the method:
as §6, §7, §8

The mark [9] stands for this setting: baseline damage (absence of bleomycin), Figure 2A.
The mark [10] stands for this setting: 4 µg/mL of bleomycin, Figure 1B.
[11] abbreviates: culture control conditions (absence of bleomycin), Figure 1A.

With “DKPSNPSSHE [P3, GSE24.2-derived peptide of 10 amino acids, expressed in cells from a lentiviral vector]”, in the assay on RLE6TN cells [1], the “expression of Tert mRNA” value is on record as “an increase was also observed” and the “expression of Terc” value was “significant increase”. Besides, in the assay on RLE6TN cells [2], the “induction of expression of Mcp1 mRNA after incubating the cells with TGFβ” value is on record as “decreases the induction of expression of both markers” and the “induction of expression of Tgfbr1 mRNA after incubating the cells with TGFβ” value is on record as “decreases the induction of expression of both markers”. Further, in the assay on HaCaT cells [3], the “induction of expression of TGFBR2 mRNA after incubating the cells with TGFβ” value was “decreases the induction of expression of both markers” and the “induction of expression of MCP1 mRNA after incubating the cells with TGFβ” value was “decreases the induction of expression of both markers”. Further, in the assay on HaCaT cells [4], the “expression of Terc” value is reported as “caused an increase” and the “expression of TERT” value is listed as “caused an increase”. In addition, the “DNA damage signalling (amount of yH2AX)” value in the assay with HaCaT cells [5] (50 µg/mL of bleomycin, Figure 2B) is on record as “reduces DNA damage signalling”. Moreover, in the assay with HaCaT cells [5] (setting [9]), the “DNA damage signalling (amount of yH2AX)” value is given as “reduces DNA damage signalling”. In assay [6] (setting [10]), the “levels of yH2AX” value is on record as “causes a decrease in the levels of yH2AX”. For the same sequence, the “levels of yH2AX” value in assay [6] (setting [11]) was “causes a decrease in the levels of yH2AX”. The “expression of IL-6 mRNA” value in the assay with HaCaT cells [7] is reported as “decreased the expression of IL-6 mRNA”. The “expression of IL-6 mRNA” value in the assay on RLE6TN cells [8] is listed as “decreased the expression of IL-6 mRNA”.
Consider GFINLDKPSNP [GSE4, reference compound], for which, in the assay on RLE6TN cells [1], the “expression of Tert mRNA” value is recorded as “an increase was also observed” and the “expression of Terc” value is recorded as “significant increase”. For the same sequence, in the assay on RLE6TN cells [2], the “induction of expression of Mcp1 mRNA after incubating the cells with TGFβ” value is “also causes this inhibitory effect of the response to TGFβ” and the “induction of expression of Tgfbr1 mRNA after incubating the cells with TGFβ” value was “also causes this inhibitory effect of the response to TGFβ”. Further, in the assay on HaCaT cells [3], the “induction of expression of TGFBR2 mRNA after incubating the cells with TGFβ” value was “also causes this inhibitory effect of the response to TGFβ” and the “induction of expression of MCP1 mRNA after incubating the cells with TGFβ” value is on record as “also causes this inhibitory effect of the response to TGFβ”. In the assay on HaCaT cells [4], the “expression of Terc” value is given as “caused an increase” and the “expression of TERT” value is “caused an increase”. In the assay with HaCaT cells [5] (setting [9]), the “DNA damage signalling (amount of yH2AX)” value is recorded as “the reduction is greater than that caused by the expression of GSE4”. Further, in assay [6] (setting [10]), the “levels of yH2AX” value is recorded as “This decrease is greater than that caused by the expression of the GSE4 peptide”. In assay [6] (setting [11]), the “levels of yH2AX” value is given as “This decrease is greater than that caused by the expression of the GSE4 peptide”. Besides, the “expression of IL-6 mRNA” value in the assay on HaCaT cells [7] was “decreased the expression of IL-6 mRNA”. In addition, the “expression of IL-6 mRNA” value with RLE6TN cells [8] was “decreased the expression of IL-6 mRNA”.
